Test results: article PMC7408179 (Pharmaceutics, 2020)
Read-outs that look alike come from different tables or passages of the source. Marks after values point to notes of the source that are not given here. Each block holds one compound with its values, some of them ahead of it.

Legend:
[1] = Gastric fluid volume via MRI, control vs PPI condition; format: in vivo, human; details: for relative decrease in total gastric fluid volume (AUVC): first 180 min after Norvir tablet with 240 mL water, median, n = 5
Experimental: Each trial day, the participant came to the radiology department at the University Hospitals Leuven after an overnight fast (at least 12 h). Water was allowed until the night before the trial except for the volume needed to swallow the PPI tablet. For the PPI condition, participants were pre-treated with a once-daily dose of Nexium (just before breakfast) starting two days prior to the trial day. On the morning of the trial, the final Nexium tablet was taken 2 h prior to the arrival time at the hospital, with as little water as possible to swallow the tablet. […] A venous catheter was placed in the subject’s arm and a blank blood sample (5 mL) was collected in heparinized tubes (BD Vacutainer systems, Plymouth, UK). […] In addition, subjects were placed in a Philips 1.5 T MRI System (Philips, Best, The Netherlands) to assess the gastric and duodenal fluid volume, once before administration of the study medication and afterwards at predetermined time points, i.e., 20, 40, 60, 90, 120, 150 and 180 min.
Upon entering the MRI system, a rectangular dStream FlexCoverage Anterior coil (Ingenia 1.5 tesla, Philips, Best, The Netherlands) was placed on the torso of the subjects. A scouting sequence was used in the coronal and transversal plane to allow correct sequence positioning. […] Images were taken during exhalation breath hold.
Images were analysed using Horos™ (Version 3.3.6, Horos project), a free open source medical images viewer. Gastric and duodenal fluid volumes reported in this study were acquired with sequence 1. […] This made the sequence unsuitable for fluid determination as the duodenum passes these blood vessels which would interfere with the outlining of the fluid present in the duodenum.
As free water lights up in a T2 weighted image, a trained operator semi-automatically traced all the bright spots in each slice for the stomach and duodenum, according to a published procedure [21]. To differentiate between free water and other contents in the respective organs, a cut-off value (lower threshold) of 30% of the brightest voxel in either the stomach or the duodenum was applied. This cut-off value must be regarded as a rule of thumb and manual correction was made to account for bright organs like the gall bladder and obvious acquisition errors (e.g., illogical dark spots in the middle of a fluid filled stomach). Subsequently, a 3D image of the traced fluid was rendered and the fluid volume was calculated by adding up the fluid volumes of each slide (multiplying the surface area of the traced region of interest with the slice thickness).

[2] = Duodenal fluid volume via MRI, control vs PPI condition; format: in vivo, human; details: for relative decrease in duodenal AUVC: first 180 min after Norvir tablet with 240 mL water, n = 5
Experimental: All volunteers provided written informed consent before participating in the trial. Each trial day, the participant came to the radiology department at the University Hospitals Leuven after an overnight fast (at least 12 h). Water was allowed until the night before the trial except for the volume needed to swallow the PPI tablet. For the PPI condition, participants were pre-treated with a once-daily dose of Nexium (just before breakfast) starting two days prior to the trial day. On the morning of the trial, the final Nexium tablet was taken 2 h prior to the arrival time at the hospital, with as little water as possible to swallow the tablet. […] A venous catheter was placed in the subject’s arm and a blank blood sample (5 mL) was collected in heparinized tubes (BD Vacutainer systems, Plymouth, UK). […] A scouting sequence was used in the coronal and transversal plane to allow correct sequence positioning. At each time point, three standardized sequences were used to acquire images; sequence parameters are depicted in Table 1. Images were taken during exhalation breath hold. Images were analysed using Horos™ (Version 3.3.6, Horos project), a free open source medical images viewer. […] This made the sequence unsuitable for fluid determination as the duodenum passes these blood vessels which would interfere with the outlining of the fluid present in the duodenum. Sequence 2 was therefore used as a localizer for the duodenum (i.e., determining the location of the duodenojejunal flexure (Figure 1). As free water lights up in a T2 weighted image, a trained operator semi-automatically traced all the bright spots in each slice for the stomach and duodenum, according to a published procedure. […] This cut-off value must be regarded as a rule of thumb and manual correction was made to account for bright organs like the gall bladder and obvious acquisition errors (e.g., illogical dark spots in the middle of a fluid filled stomach).

[3] = parameters: method as in PMID 32461076; details: daily dose of 40 mg esomeprazole for three days; cited from earlier work
[4] = Ritonavir plasma concentrations after oral intake of a Norvir tablet, control vs PPI condition (LC-MS/MS); format: in vivo, human; details: for AUC0-480min / Tmax: one Norvir tablet oral, fasted, median (range), n = 4
Experimental: All volunteers provided written informed consent before participating in the trial. Each trial day, the participant came to the radiology department at the University Hospitals Leuven after an overnight fast (at least 12 h). Water was allowed until the night before the trial except for the volume needed to swallow the PPI tablet. For the PPI condition, participants were pre-treated with a once-daily dose of Nexium (just before breakfast) starting two days prior to the trial day. On the morning of the trial, the final Nexium tablet was taken 2 h prior to the arrival time at the hospital, with as little water as possible to swallow the tablet. A daily dose of 40 mg esomeprazole for three days has shown to elevate and sustain the gastric and duodenal pH to values around 7.1 and 7.5, respectively, indicative of the acid-inhibitory effect. A venous catheter was placed in the subject’s arm and a blank blood sample (5 mL) was collected in heparinized tubes (BD Vacutainer systems, Plymouth, UK). […] In addition, subjects were placed in a Philips 1.5 T MRI System (Philips, Best, The Netherlands) to assess the gastric and duodenal fluid volume, once before administration of the study medication and afterwards at predetermined time points, i.e., 20, 40, 60, 90, 120, 150 and 180 min.
Blood samples were stored on ice during the remainder of the study day, before centrifugation at 2880× g, for 10 min at 4 °C (Centrifuge 5804R, Eppendorf, Hamburg, Germany). Plasma was collected and stored at −20 °C pending analysis. For analysis, a liquid-liquid extraction was performed in which 50 µL of plasma was added to 450 µL HBSS and vortexed for a few seconds. Lopinavir was used as internal standard: 100 µL of a 200 nM stock solution in 25% v/v DMSO-water was added to the mixture. Before extraction, the pH was adjusted by adding 500 µL of 40 mM borax buffer (pH = 9), followed by 5 mL of the extraction medium hexane—ethyl acetate (50:50, v/v) and shaken for 1 min. The mixture was centrifugated at 2880× g, for 5 min at 4 °C and the organic layer was transferred to a new test tube and evaporated to dryness under a gentle airflow. The residue was redissolved in 1 mL of methanol and vortexed for 30 s before another evaporation cycle. The resulting residue was reconstituted in 200 µL methanol—water (50:50, v/v) awaiting analysis.
For the analysis, a Waters ACQUITY UHPLC H-Class system consisting of a quaternary pump was used combined with a Waters Xevo TQ-S micro mass spectrometer (Waters, Milford, MA, USA). Separation took place on a Kinetex® column (2.6 µm XB-C18 100 A, 50 × 2.1 mm, Phenomenex, Utrecht, the Netherlands) using isocratic elution with methanol—0.1% formic acid (65:35, v/v) followed by a wash gradient and re-equilibration (Table 2). Column temperature was set at 35 °C and samples were kept in the autosampler at 15 °C. […] Peaks were detected with MS/MS, using electrospray ionization (ESI) as ion source. […] Fragmentation was induced by collision with argon. The system was operated in multi-reaction monitoring (MRM) mode with the mass transitions according to Table 3.

[5] = cited from earlier work
[6] = parameters: method as in PMID 32461076; details: median; esomeprazole pre-treatment, Norvir tablet; cited from earlier work
[7] = cited from earlier work; remark: listed apart in the source
[8] = parameters: method as in PMID 18991471; details: compared to esomeprazole, pantoprazole and rabeparzole; cited from earlier work
[9] = PPI vs control condition, volunteer HV02
[10] = PPI vs control condition, median, present study

SMILES: COc1ccc2nc([S@@+]([O-])Cc3ncc(C)c(OC)c3C)[nH]c2c1 [esomeprazole]
relative decrease in gastric residual volume (GRV) ([1]; PPI vs control condition, fasted, prior to ritonavir intake, five volunteers): 41% | relative decrease in total gastric fluid volume (AUVC) ([1]; PPI vs control condition): 44% | relative decrease in total gastric fluid volume (AUVC) ([1]; PPI vs control condition, listed as PPI): 43.9% | gastric residual volume (GRV) ([1]; following pre-treatment with esomeprazole 40 mg for three days, fasted state, mean ± SD): 20 ± 15 mL | duodenal fluid volume ([2]; PPI condition, after Norvir tablet with 240 mL water, median): 8.6 mL | relative decrease in duodenal AUVC ([2]; PPI vs control condition, median): 33% | relative decrease in duodenal AUVC ([2]; PPI vs control condition, median, listed as PPI): 33.3% | drop in duodenal fluid AUVC [2, 9]: 37% | decrease in duodenal fluid volume ([2]; after PPI treatment, average over all volunteers): 32% | duodenal pH [3]: ~7.5 | gastric pH [3]: around 7.1

PPI-induced decrease in Cmax [4, 10]: 39.0% | delay in tmax [4, 10]: 10% | drop in plasma AUC [4, 9]: 65% | Tmax ([4]; both sexes, human, plasma, po, 40 mg, PPI condition (esomeprazole 40 mg once daily for three days), read-out: tmax (converted)): 3.75 h | Cmax ([4]; both sexes, human, plasma, po, 100 mg): 1130 nM | Tmax ([4]; both sexes, human, plasma, po, 100 mg, control condition, read-out: tmax (converted)): 3.22 h | Tmax ([4]; control condition): 192.5 (175–240) min
SMILES: CC(C)c1nc(CN(C)C(=O)N[C@H](C(=O)N[C@@H](Cc2ccccc2)C[C@H](O)[C@H](Cc2ccccc2)NC(=O)OCc2cncs2)C(C)C)cs1 [ritonavir]
AUC0-480min ([4]; PPI condition (esomeprazole 40 mg once daily for three days)): 2.5 · 10^5 (1.2 · 10^5–3.2 · 10^5) nmol·min/L | AUC0-480min ([4]; control condition): 3.8 · 10^5 (2.6 · 10^5–5.9 · 10^5) nmol·min/L | Log P [5]: 4.3 | pKa ([5]; weak base): 2.6 | PPI-induced decrease in AUC0–480min [6]: 39.5% | PPI-induced decrease in Cmax [6]: 49.6% | delay in tmax [6]: 50%

SMILES: COc1ccc2[nH]c([S+]([O-])Cc3ncc(C)c(OC)c3C)nc2c1 (stereo not drawn) [omeprazole]
effect on plasma Cmax or AUC of ritonavir [7]: did not report an effect | effect on the gastric fluid volume compared to other PPIs [8]: less pronounced effect on the gastric fluid volume
